According to ChEMBL document CHEMBL1201862, “PubChem BioAssay data set” (2004):
Calls of active or inactive are those of the source.

Columns and labels:
[1] = luciferase reporter signal suppression in cells – H4 neuroglioma cells, luminescence, dose response (AID 1990); type: functional, cell-based
[2] = Luminescence Cell-Based Dose Response HTS to Identify Inhibitors of 5'UTR Stem-Loop Driven Prion Protein mRNA Translation in H4 Neuroglioblastoma Cells. [Related pubchem assays: 1827 (Project Summary), 1813 (Primary HTS)]; type: functional
[3] = alpha-synuclein stem-loop luciferase translation blockers – H4 neuroglioma cells, luminescence, confirmation (AID 1988); type: functional, cell-based
[4] = target: T1, Replicative DNA helicase DnaB (Mycobacterium tuberculosis, UniProt P9WMR3); assay: DnaB intein splicing inhibitors, dose response, biochemical, cell-free fluorescence (AID 449749); type: functional
T1 sequence (P9WMR3 whole entry): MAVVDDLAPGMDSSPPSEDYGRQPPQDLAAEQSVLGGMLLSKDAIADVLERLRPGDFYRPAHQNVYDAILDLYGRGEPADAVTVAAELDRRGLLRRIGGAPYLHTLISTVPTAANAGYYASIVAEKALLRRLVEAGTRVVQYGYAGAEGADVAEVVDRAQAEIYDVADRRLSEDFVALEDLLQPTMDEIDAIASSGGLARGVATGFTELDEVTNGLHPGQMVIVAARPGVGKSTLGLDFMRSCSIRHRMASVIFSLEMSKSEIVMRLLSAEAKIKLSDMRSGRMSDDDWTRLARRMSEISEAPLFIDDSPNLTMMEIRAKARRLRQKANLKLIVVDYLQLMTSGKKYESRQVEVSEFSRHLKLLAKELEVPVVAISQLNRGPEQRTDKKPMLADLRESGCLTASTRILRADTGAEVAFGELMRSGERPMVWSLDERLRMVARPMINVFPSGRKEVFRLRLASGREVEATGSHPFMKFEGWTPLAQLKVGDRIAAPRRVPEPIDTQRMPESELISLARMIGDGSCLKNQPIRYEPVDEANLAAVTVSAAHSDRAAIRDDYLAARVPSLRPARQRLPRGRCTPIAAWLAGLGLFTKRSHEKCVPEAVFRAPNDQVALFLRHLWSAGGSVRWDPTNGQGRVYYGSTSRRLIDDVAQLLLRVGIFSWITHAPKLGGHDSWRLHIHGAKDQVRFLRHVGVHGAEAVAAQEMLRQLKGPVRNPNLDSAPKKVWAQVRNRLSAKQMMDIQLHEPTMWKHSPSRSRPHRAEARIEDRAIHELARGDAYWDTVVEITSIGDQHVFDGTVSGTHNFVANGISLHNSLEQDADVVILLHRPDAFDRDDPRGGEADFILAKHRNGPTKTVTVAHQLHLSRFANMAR

Protein RecA = target: T2, Protein RecA (Mycobacterium tuberculosis, UniProt P9WHJ3); assay: Fluorescence Cell-Free Homogeneous Dose Retest to Identify Inhibitors of RecA-Intein Splicing Activity. [Related pubchem assays (depositor defined):AID2097, AID2223, AID489010, AID492950]; type: functional
T2 sequence (P9WHJ3 whole entry): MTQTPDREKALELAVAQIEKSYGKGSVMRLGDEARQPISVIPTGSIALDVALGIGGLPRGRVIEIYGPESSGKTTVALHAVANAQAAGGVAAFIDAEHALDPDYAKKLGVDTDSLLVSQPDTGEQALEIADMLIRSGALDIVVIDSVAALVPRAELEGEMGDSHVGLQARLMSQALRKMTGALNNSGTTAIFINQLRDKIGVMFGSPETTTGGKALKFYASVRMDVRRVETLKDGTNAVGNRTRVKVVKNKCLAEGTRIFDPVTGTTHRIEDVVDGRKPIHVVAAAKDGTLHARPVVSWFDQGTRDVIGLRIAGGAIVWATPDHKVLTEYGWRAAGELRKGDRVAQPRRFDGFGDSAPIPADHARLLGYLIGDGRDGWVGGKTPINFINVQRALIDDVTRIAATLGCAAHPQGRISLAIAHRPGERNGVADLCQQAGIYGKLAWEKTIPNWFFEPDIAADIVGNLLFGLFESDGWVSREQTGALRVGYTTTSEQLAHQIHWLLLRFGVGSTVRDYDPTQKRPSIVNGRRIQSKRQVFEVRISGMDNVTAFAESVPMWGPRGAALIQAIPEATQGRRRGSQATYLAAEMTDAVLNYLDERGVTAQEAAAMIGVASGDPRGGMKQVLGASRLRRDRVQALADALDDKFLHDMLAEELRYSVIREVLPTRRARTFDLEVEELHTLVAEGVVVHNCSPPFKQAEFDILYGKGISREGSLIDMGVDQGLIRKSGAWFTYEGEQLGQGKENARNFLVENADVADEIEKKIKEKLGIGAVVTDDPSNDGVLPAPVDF

INS1 = assay: INS-1E survival protection against cytokine death – cell-based, luminescence, retest, dose response (AID 449756); type: functional; settings: Rattus norvegicus;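 note: cell death triggered by IL-1 beta plus TNF-alpha plus IFN-gamma mixture; protective hits raise ATP signal compared with cytokine alone wells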
[5] = target: T3, Mitochondrial peptide methionine sulfoxide reductase (Bos taurus, UniProt P54149); assay: Absorbance-based biochemical high throughput dose response assay for activators of Methionine sulfoxide reductase A (MsrA).; type: functional
T3 sequence (P54149 whole entry): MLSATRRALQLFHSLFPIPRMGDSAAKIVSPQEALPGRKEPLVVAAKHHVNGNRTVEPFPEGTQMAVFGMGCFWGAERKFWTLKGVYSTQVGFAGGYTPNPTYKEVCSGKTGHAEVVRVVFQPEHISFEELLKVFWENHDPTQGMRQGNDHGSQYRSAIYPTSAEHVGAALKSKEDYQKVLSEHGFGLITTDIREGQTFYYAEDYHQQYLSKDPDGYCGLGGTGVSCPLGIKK

[6] = target: T4, Histone-lysine N-methyltransferase NSD2 (Homo sapiens, UniProt O96028); type: biochemical
T4 sequence (O96028 whole entry): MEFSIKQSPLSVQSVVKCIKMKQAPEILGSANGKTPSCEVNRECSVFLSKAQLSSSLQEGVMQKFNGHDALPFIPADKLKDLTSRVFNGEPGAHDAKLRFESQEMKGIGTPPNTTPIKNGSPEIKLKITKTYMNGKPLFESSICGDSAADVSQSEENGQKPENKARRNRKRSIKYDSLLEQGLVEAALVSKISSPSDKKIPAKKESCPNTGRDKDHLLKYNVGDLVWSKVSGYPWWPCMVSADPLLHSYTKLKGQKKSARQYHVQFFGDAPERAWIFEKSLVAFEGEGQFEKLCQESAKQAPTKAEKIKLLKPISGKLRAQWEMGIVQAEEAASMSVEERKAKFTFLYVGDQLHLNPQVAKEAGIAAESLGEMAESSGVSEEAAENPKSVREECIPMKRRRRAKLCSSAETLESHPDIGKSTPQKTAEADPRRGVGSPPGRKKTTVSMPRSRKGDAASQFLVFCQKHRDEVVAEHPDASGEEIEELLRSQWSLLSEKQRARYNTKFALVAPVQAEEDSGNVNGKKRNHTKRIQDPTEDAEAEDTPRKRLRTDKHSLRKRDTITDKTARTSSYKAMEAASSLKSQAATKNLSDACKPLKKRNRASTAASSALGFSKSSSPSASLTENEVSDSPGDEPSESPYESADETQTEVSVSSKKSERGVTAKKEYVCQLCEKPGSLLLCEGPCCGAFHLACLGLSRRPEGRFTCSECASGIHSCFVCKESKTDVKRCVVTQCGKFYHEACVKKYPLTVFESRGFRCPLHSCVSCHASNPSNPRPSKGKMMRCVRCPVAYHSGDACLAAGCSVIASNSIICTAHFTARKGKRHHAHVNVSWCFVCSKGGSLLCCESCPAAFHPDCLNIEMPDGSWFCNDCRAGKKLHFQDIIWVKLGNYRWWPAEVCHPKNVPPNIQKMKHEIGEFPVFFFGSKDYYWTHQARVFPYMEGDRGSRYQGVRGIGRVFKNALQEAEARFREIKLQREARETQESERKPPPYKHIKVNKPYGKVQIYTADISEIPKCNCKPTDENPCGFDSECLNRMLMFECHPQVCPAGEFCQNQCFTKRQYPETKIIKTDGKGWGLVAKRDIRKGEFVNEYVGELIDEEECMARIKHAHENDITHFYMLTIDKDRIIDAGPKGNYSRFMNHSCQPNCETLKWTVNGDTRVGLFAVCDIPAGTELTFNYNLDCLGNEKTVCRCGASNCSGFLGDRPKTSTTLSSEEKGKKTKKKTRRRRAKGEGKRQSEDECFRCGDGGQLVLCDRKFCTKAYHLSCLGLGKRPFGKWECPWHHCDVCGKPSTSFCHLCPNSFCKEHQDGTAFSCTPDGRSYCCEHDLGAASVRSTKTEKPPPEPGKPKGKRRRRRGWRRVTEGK

[7] = target: T5, Voltage-gated N-type calcium channel alpha-1B subunit/Amyloid beta A4 precursor protein-binding family A member 1 (Homo sapiens, UniProt Q00975+Q02410); type: protein assay
T5 sequence (Q00975 whole entry): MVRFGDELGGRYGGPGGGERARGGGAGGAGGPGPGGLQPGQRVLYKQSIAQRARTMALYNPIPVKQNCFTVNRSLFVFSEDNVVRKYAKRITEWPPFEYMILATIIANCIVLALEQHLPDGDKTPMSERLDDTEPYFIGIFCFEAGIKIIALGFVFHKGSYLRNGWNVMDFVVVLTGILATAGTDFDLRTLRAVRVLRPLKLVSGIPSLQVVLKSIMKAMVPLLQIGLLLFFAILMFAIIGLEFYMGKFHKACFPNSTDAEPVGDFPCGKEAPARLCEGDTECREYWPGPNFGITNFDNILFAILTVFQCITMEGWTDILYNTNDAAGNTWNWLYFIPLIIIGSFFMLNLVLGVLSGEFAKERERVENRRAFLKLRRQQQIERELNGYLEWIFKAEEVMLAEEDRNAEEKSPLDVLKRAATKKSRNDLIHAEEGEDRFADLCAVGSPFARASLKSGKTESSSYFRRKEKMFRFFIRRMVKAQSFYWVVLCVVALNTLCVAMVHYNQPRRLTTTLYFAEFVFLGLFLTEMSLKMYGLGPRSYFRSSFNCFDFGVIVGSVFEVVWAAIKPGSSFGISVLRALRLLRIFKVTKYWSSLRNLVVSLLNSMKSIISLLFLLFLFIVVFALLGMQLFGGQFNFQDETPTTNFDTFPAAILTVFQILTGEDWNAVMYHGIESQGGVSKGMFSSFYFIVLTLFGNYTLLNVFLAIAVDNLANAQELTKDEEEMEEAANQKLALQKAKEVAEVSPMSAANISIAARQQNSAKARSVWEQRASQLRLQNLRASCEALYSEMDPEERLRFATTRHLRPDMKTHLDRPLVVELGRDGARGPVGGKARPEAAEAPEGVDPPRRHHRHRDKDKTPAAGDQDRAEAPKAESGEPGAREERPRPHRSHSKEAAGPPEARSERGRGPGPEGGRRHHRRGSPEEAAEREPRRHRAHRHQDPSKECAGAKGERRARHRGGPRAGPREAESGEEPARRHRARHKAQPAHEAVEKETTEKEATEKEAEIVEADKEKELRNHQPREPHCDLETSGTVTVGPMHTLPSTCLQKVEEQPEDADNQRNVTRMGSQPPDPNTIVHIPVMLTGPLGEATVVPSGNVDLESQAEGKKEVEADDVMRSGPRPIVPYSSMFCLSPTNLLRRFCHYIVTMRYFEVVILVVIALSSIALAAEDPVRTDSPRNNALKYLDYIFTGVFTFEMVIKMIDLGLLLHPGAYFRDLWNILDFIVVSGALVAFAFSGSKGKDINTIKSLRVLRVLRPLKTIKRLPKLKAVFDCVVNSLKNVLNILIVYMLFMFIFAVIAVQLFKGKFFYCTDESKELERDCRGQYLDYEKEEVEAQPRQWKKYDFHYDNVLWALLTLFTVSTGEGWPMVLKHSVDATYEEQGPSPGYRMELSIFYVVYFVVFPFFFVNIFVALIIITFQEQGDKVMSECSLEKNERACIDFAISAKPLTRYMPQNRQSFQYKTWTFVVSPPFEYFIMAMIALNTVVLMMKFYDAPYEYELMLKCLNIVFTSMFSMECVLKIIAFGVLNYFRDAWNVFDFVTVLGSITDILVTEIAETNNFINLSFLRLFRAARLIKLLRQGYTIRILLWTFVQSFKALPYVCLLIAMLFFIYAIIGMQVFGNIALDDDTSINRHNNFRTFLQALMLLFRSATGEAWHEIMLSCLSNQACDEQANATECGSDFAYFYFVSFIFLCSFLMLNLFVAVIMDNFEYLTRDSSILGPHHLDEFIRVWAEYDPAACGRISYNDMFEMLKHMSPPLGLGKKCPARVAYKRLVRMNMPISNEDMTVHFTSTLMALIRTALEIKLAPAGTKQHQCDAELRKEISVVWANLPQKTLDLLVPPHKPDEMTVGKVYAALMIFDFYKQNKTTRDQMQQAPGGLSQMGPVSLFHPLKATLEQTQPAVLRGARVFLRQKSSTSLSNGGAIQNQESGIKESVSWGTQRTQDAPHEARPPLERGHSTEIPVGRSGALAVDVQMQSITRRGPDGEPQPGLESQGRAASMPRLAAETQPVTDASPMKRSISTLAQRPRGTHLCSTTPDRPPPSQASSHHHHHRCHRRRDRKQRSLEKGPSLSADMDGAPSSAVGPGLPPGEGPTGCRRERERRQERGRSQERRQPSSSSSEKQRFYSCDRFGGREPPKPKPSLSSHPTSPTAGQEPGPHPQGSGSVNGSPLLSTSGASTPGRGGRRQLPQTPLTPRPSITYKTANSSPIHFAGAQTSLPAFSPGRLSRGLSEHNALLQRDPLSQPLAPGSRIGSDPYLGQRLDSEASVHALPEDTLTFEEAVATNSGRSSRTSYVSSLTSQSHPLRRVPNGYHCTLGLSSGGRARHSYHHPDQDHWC
T5 sequence (Q02410 whole entry): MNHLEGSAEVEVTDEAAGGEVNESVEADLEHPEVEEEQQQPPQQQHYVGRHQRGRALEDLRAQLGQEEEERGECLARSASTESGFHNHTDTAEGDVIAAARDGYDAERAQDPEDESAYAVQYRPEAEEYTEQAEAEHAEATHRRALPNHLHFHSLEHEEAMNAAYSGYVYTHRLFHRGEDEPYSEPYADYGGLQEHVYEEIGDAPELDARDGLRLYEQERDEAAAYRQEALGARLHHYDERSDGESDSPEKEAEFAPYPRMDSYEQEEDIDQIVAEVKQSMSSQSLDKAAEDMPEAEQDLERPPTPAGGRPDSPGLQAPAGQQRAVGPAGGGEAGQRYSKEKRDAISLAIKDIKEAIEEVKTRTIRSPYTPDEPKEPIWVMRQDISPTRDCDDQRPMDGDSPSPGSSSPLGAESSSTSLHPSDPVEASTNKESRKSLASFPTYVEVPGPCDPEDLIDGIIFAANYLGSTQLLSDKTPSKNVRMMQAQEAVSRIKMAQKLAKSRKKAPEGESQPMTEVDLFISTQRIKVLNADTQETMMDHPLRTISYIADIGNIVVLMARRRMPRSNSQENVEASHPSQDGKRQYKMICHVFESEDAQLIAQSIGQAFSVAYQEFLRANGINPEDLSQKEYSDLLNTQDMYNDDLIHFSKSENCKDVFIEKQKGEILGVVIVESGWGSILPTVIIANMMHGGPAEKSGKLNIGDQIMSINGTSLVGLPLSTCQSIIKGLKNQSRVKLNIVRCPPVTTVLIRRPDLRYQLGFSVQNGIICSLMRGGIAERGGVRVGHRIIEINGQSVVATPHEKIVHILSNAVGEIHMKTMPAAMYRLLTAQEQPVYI

NS3 = NS3 (Hepatitis C virus, UniProt A3EZJ3); assay: PubChem AID 2173; parameters: species or system Hepacivirus hominis
[8] = target: T5, Voltage-gated N-type calcium channel alpha-1B subunit/Amyloid beta A4 precursor protein-binding family A member 1; type: protein assay; remark: listed apart in the source
[9] = target: T6, Bifunctional protein GlmU (Mycobacterium tuberculosis, UniProt P9WMN3); assay: Inhibitors of Mycobacterial Glucosamine-1-phosphate acetyl transferase (GlmU). Secondary screen.; parameters: species or system Mycobacterium tuberculosis H37Rv
T6 sequence (P9WMN3 whole entry): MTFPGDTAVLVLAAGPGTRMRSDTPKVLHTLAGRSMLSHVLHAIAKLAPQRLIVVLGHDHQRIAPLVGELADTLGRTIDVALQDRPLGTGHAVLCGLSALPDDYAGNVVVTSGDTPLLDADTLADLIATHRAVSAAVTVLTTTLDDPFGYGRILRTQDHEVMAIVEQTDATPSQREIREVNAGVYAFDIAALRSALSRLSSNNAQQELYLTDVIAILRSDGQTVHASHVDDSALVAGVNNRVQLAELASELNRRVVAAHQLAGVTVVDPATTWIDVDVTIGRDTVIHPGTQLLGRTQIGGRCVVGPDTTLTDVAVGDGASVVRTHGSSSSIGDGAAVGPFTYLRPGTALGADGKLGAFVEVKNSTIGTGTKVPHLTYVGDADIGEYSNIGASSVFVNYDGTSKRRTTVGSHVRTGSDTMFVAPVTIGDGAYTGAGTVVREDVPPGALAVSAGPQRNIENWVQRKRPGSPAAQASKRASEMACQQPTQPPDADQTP

[10] = target: Induced myeloid leukemia cell differentiation protein Mcl-1 (Homo sapiens, UniProt Q07820); type: functional
ORF 73 = ORF 73 (Human herpesvirus 8, UniProt O40947); assay: KSHV LANA DNA-binding disruption – biochemical, fluorescence polarization, cherry-picked samples, dose response (AID 504725); parameters: species or system Human gammaherpesvirus 8;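 note: fluorescence polarization of a labeled DNA duplex reporting LANA DNA binding; potency is for inhibitors that block LANA binding to the DNA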
[11] = target: Eukaryotic translation initiation factor 4E (Mus musculus, UniProt P63073); assay: blockers of eIF4G binding by eIF4E – biochemical, TR-FRET, dose response (AID 855); type: functional;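 note: potency for disrupting eIF4E binding to eIF4GI seen as loss of FRET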
Chain of Eukaryotic translation initiation factor 4E (P63073 whole entry): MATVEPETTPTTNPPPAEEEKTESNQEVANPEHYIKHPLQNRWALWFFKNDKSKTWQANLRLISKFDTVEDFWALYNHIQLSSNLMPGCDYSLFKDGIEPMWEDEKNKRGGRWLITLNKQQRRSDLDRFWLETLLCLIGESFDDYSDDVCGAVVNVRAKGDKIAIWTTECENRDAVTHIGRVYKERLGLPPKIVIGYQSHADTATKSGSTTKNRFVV

[12] = target: DNA (cytosine-5)-methyltransferase 1 (Homo sapiens, UniProt P26358); assay: inhibition of DNA methylation by DNMT1 – biochemical, fluorescent molecular beacon, confirmation (AID 602386); type: functional
[13] = target: Glucose-6-phosphate 1-dehydrogenase (Homo sapiens, UniProt P11413); assay: inhibition of Homo sapiens G6PD, dose series – biochemical, fluorescence, selectivity assay for P. falciparum G6PD inhibitor project, dose response (AID 504792); type: functional
[14] = target: T3, Mitochondrial peptide methionine sulfoxide reductase; type: functional
[15] = blockers of HIV-1 envelope-mediated cell-cell fusion – cherry-pick, dose response (AID 652057); type: functional, cell-based
[16] = viability loss in CEM21 cells – cell-based, CellTiter-Glo luminescence, cherry-picked, cytotoxicity control for viral fusion inhibitor project, dose response (AID 652042); type: functional;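 note: potency for signal decrease meaning cytotoxicity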
[17] = blockers of HIV-1 ZM109 envelope-driven cell-cell fusion – HeLa effector, CEM target cells, luciferase, cherry-pick, dose response (AID 652058); type: functional, cell-based;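 note: luciferase signal from HIV-1 Env mediated cell-cell fusion of effector and target cells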
[18] = off-target signal loss in HeLa-CEM21 co-culture – HeLa F-luc CTL cells, cherry-picked, counter-screen for HIV-1 Env fusion inhibitor project, dose response (AID 652040); type: functional, cell-based;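 note: potency for signal decrease marking cytotoxic or nonspecific inhibition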
[19] = HIV-1 AD8 envelope cell-cell fusion blockers – cherry-pick, dose response (AID 652062); type: functional, cell-based;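 note: luciferase signal from cell-cell fusion driven by HIV-1 clade B AD8 Env; potency is for inhibitors of fusion seen as a drop in luminescence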
[20] = target: Tyrosine-protein phosphatase non-receptor type 11 (Homo sapiens, UniProt Q06124); assay: PTPN11 enzyme inhibitors – biochemical, selectivity assay for STEP inhibitor project, dose response (AID 602367); type: functional; settings: read-out: IC50_Mean
Chain of Tyrosine-protein phosphatase non-receptor type 11 (Q06124 whole entry): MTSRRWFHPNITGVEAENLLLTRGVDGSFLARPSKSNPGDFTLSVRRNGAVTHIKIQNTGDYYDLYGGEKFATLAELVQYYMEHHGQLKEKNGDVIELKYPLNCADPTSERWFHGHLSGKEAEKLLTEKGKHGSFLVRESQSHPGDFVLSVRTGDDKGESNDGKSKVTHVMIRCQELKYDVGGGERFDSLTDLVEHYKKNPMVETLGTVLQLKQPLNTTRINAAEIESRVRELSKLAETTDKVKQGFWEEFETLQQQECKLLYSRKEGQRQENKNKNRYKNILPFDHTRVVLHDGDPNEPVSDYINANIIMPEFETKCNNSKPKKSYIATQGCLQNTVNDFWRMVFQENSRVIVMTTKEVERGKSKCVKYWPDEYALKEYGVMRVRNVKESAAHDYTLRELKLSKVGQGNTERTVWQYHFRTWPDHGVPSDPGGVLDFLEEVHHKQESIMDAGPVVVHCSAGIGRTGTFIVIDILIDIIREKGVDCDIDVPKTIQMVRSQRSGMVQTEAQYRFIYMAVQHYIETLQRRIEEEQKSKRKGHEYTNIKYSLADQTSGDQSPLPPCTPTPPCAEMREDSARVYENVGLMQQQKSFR

[21] = target: Tyrosine-protein phosphatase non-receptor type 5 (Homo sapiens, UniProt P54829); assay: PTPN5 enzyme inhibition – biochemical, fluorescence intensity, uHTS hits, confirmation (AID 602372); type: functional; settings: read-out: IC50_Mean
Chain of Tyrosine-protein phosphatase non-receptor type 5 (P54829 whole entry): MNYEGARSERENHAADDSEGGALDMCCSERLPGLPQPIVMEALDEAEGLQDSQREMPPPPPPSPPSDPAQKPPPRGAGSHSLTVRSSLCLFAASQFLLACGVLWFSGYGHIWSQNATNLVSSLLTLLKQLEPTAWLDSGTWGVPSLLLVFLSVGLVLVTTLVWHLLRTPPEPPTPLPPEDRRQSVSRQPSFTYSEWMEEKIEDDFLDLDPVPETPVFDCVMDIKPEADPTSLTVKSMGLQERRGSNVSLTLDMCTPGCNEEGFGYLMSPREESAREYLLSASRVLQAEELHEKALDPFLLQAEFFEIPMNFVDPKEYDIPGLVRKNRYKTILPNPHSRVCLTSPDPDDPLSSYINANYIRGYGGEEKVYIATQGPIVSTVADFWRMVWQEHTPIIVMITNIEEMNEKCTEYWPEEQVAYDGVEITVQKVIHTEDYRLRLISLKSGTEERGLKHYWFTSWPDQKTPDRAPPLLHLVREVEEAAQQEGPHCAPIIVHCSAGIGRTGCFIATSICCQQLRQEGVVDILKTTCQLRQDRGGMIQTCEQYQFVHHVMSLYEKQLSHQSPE

[22] = target: Dual specificity protein phosphatase 3 (Homo sapiens, UniProt P51452); assay: VHR phosphatase inhibition, dose response, selectivity assay for STEP inhibitor project, biochemical (AID 602374); type: functional; settings: read-out: IC50_Mean
Chain of Dual specificity protein phosphatase 3 (P51452 whole entry): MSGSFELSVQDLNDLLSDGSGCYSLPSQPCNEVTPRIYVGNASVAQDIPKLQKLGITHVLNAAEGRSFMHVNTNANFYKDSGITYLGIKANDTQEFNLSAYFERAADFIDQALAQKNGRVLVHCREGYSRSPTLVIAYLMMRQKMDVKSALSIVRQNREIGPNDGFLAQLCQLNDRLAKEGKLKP

NC1=C(Br)C(=O)c2ccccc2C1=O
EC50 [1]: > 60 µM (not active) | EC50 [2]: > 60 µM (not active) | EC50 [3]: > 120 µM (not active) | AC50 [4]: 2.95 µM (active) | EC50 (Protein RecA): 2.99 µM (active) | AC50 (INS1): 6.52 µM (active) | EC50 [5]: 61.9 µM (inactive) | AC50 [6]: 10 µM (active)

O=C(O)c1ccc(-n2cccc2/C=C2/NC(=O)N(c3cccc(Cl)c3)C2=O)cc1
IC50 [7]: 3.28 µM (active) | IC50 (NS3): 6.07 µM (active) | IC50 [8]: 48.1 µM (active) | IC50 [9]: 66.8 µM (active) | IC50 [10]: 6.34 µM (active) | AC50 (ORF 73): 86.8 µM (active) | IC50 [11]: 50 µM (inactive) | IC50 [12]: 4.62 µM (active)

Cc1nc2c(o1)C(=O)c1ccccc1C2=Nc1ccccc1
IC50 [13]: > 80 µM (inactive) | IC50 [14]: 155 µM (inactive) | AC50 [15]: 5.92 µM (active) | AC50 [16]: 4.8 µM (active) | AC50 [17]: 3.45 µM (active) | AC50 [18]: 4.25 µM (active) | AC50 [19]: 2.74 µM (active)

Sc1nnc(-c2cccnc2)n1/N=C/c1ccc(Br)s1
IC50 [20]: 4.66 µM (active) | IC50 [21]: > 80 µM (inactive) | IC50 [22]: 4.27 µM (active)
